In patent US20220177954A1, “NUCLEIC ACID PROBES” (CYTOTEST INC., priority 2020, published 2022):

Experiments:
[1] = system: PC-3 cell lines wt, chd1 ko1, chd1 ko2; test: Viability cell proliferation assay (PrestoBlue) in PC-3 wt versus chd1 ko isogenic cell lines; type: cell-based, human; conditions: CHD1 deficient (CRISPR-Cas9 knock out) PC-3 cells versus wild type, 24 hrs exposure, then 5 days drug-free
Description: PC-3 prostate cell line was purchased from ATCC® and grown in RPMI 1640 (Gibco) supplemented with 10% FBS (Gibco). RPE1-CHD1 knock out cells were provided by Alan D. D'Andrea's laboratory. Cells were incubated at 37° C. in 5% CO2, and regularly tested for Mycoplasma spp. contamination.
Full length SpCas9 ORF was introduced in PC-3 cell population by Lentiviral transduction using lentiCas9-Blast (Addgene #52962) construction. After antibiotics (blasticidin) selection, survival populations were single cell cloned, isogenic cell lines were generated and tested for Cas9 activity by cleavage assay.
CHD1 was targeted in stable CRISPR-Cas9 expressor isogenic PC-3 cell line using guide RNA CHD1_ex2_g1 (caccg[…]), resulting in PC-3 chd1 ko 1, and chd1 ko 2 homozygous loss cell lines.
Exponentially growing PC-3 cell lines wt, chd1 ko1, chd1 ko2 were seeded in 96-well plates (1000 cells/well) and incubated for 36 hrs to facilitate cell attachment. Identical cell numbers of seeded parallel isogenic lines were verified by the Celigo Imaging Cytometer after attachment.
Cells were exposed to Talazoparib (Selleckchem), Olaparib (MedChemExpress) and Bleomycin sulfate (Fisher Scientific) for 24 hrs, then kept in drug-free fresh media for 5 days until cell growth was determined by the addition of PrestoBlue (Invitrogen) and incubated for 2.5 hrs. Cell viability was determined by using the BioTek plate reader system. Fluorescence was recorded at 560 nm/590 nm, and values were calculated based on the fluorescence intensity. IC50 values were determined by using the AAT Bioquest IC50 calculator tool. P-values were calculated using student's t-test. P-values <0.05 were considered statistically significant.

CHD1 null cells = conditions: cited from earlier work

Row | Molecule | increase in sensitivity upon CHD1 deletion [1] | olaparib sensitivity of CHD1-deficient cancer cells (CHD1 null cells)
1 | Cn1ncnc1[C@H]1c2n[nH]c(=O)c3cc(F)cc(c23)N[C@@H]1c1ccc(F)cc1 [talazoparib, Talazoparib] | 15-20 fold | –
2 | O=C(c1cc(Cc2n[nH]c(=O)c3ccccc23)ccc1F)N1CCN(C(=O)C2CC2)CC1 [olaparib, Olaparib] | approximately 5 fold | relatively mild
3 | Bleomycin sulfate | 5 fold | –
